From article PMC6874530, “Structural analysis identifies an escape route from the adverse lipogenic effects of liver X receptor ligands” (Communications Biology, 2019) come the findings set out here.

Bounds are passed on as bounds.

Assay [1] has as its target T1, LXRβ LBD (Homo sapiens, UniProt P55055).
T1 sequence (P55055 215-460 limits assumed): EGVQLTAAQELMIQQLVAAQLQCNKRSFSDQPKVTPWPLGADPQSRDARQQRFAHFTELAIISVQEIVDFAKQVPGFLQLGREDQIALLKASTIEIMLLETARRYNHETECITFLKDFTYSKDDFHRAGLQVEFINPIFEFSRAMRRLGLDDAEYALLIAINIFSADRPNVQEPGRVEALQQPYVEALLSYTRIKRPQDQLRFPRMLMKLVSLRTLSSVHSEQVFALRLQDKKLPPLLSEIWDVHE
In words: differential HDX-MS of LXRβ LBD (apo vs ligand-bound). Set-up: human his-tagged LXRβ LBD (216-461); His tag; made in house; host or cells: Escherichia coli BL21(DE3). Conditions: after 30 s of deuterium exchange. As for the experimental part:
(§1) Prior to the deuterium incorporation experiments, 10 µM apo LXR was incubated with 10× excess of ligand or equal volume of DMSO for 30 min at room temperature. In the experiments with cofactors, 15× excess of the SRC1 coactivator peptide and the NCOR1 corepressor peptide were added to the ligand-bound or apo proteins, respectively, and incubated for 30 min at room temperature. […] A fully deuterated sample was generated by incubating protein with 4 M guanidine-HCl in D2O for 30 min at 45 °C. Exchange reactions were performed with a CTC PAL sample handling robot (LEAP Technologies). Labeling times were 30, 60, 180, 600, and 1800 s in the kinetics experiments. Differential HDX of a complete compound selection was measured after 30 and 600 s of labeling time points. Reactions were conducted by incubating 4 µl of LXR with 50 µl of D2O buffer (containing 25 mM Tris-HCl (pD 7.6), 50 mM NaCl, 10% glycerol, and 1 mM TCEP). The exchange reaction was stopped by the addition of 50 µl of quench solution (3 M urea, 0.1% TFA) followed by immediate injection into a Enzymate BEH Pepsin 2.1 × 30 mm Column (Waters, UK) for protein digestion (2 min at 24 °C). Peptic digest was further injected on a Waters nanoACQUITY UPLC System where peptides were first desalted by trapping for 3 min on a VanGuard Pre-Column Acquity UPLC BEH C18 (1.7 μm; 2.1 × 5 mm), and then eluted over a 6-min 5–40% (vol/vol) acetonitrile (containing 0.1% formic acid) gradient into a Waters Synapt G2-Si mass spectrometer. Peptide separation was conducted at 0.1 °C. All exchange reactions were performed in triplicates.
(§2) Peptides from three samples of non-deuterated LXR were identified by using the ProteinLynx Global Server (PLGS Waters, UK). Peptides with an intensity of over 5000, a mass error < 5 ppm, and present in at least two of the three data acquisitions were pooled and imported into the DynamX data analysis software (Waters, UK). After a first round of automated spectral processing by using DynamX, each peptide was inspected manually for suitability for further analysis.
(§3) For pairwise comparison, MEMHDX software was used to identify statistically significant changes of deuterium uptake. For all peptides, a value of relative exchange per amino acid was corrected to back exchange. The mean deuteration level per amino acid was calculated by using Matlab (Mathworks)[69] and subsequently mapped onto the crystal structures with PyMOL (Schrodinger LLC). For structural representation, loop modeling with MOE (Chemical Computing Group Inc.) was applied on 2ACL.pdb file for LXRα LBD, and 1PQC.pdb for LXRβ LBD.

Assay [2] concerns the target T1, LXRβ LBD. The assay is described as follows: biochemical. Conditions: Receptor-binding affinity pKi LXRβ, value (SD, n independent experiments).
Description: (§5) The compounds were run in triplicate (binding assay) or in quadruplicate (transactivation assay). Standard deviations are indicated for individual experiments run more than once.
Assay [3] deals with T2, LXRα LBD (Homo sapiens, UniProt Q13133).
T2 sequence (Q13133 200-447): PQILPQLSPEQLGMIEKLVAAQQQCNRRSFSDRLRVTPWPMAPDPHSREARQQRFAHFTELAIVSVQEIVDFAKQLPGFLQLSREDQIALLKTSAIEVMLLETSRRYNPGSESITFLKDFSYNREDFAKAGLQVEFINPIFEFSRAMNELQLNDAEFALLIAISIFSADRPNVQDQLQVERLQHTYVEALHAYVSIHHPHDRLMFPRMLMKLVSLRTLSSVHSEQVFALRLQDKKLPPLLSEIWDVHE
The assay is described as follows: biochemical. Conditions: Receptor-binding affinity pKi LXRα, value (SD, n independent experiments).
Description: as §5

A further assay concerns the target T3, LXRβ/SRC1 (Homo sapiens, UniProt P55055).
T3 construct: human his-tagged LXRβ LBD (216-461); His tag; made in house; host or cells: Escherichia coli BL21(DE3)
T3 sequence (P55055 215-460 limits assumed): T1 sequence (P55055 215-460 limits assumed)
T3 sequence (Q15788 with tags, fused parts or gaps partner limits assumed): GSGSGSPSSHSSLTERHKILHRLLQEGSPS
The assay is described as follows: SPR cofactor recruitment, LXRβ LBD binding to immobilized SRC1 coactivator peptide. As for the experimental part:
The peptides carried an N-terminal biotin for surface immobilization on a Xantec NID200M Sensor Chip (NTA-derivatized carboxymethyldextran hydrogel, XanTec bioanalytics GmbH) preloaded with Ni^2+. […] LXRα and LXRβ LBD proteins were serially diluted in SPR running buffer (10 mM HEPES, 150 mM NaCl, and 0.05% Tween 20, pH 7.4) to a broad range of concentrations (0.02–10 µM) and equilibrated with tested compound (50 μM) prior to the sample injection over a modified biosensor surface. LXR-ligand complexes were injected in quick succession for 120 s over immobilized cofactor peptides and reference surfaces along with blank samples followed by 900 s of dissociation. The binding level at equilibrium was monitored for all samples, including the reference sample that contained DMSO at equal amount as tested compounds. All data were normalized to this reference sample in order to quantify the effects on peptide binding without bias by receptor instability. The surface was regenerated with 0.5% (w/v) SDS after each injection. Binding responses in the steady-state region of the sensorgrams were plotted against LXR LBD concentration to determine the overall equilibrium-binding affinity by fitting the data to nonlinear regression (Prism 8; GraphPad).

The target of another assay is T4, LXRα (Homo sapiens, UniProt Q13133).
T4 construct: expression vectors pSG5-Gal4-LXRα LBD or pSG5-Gal4-LXRβ LBD; expressed in transfected cells; host or cells: U2OS osteosarcoma cells
T4 sequence (Q13133 209-447 limits assumed): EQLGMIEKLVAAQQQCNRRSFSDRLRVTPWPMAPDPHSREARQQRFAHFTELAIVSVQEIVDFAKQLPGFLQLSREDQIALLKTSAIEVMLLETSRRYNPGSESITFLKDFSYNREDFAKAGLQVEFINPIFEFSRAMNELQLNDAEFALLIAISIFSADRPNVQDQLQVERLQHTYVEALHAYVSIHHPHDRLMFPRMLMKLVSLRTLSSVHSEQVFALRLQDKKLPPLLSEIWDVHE
In words: Gal4 one hybrid reporter gene (transactivation) assay in U2OS cells, LXRα. It is filed as cell-based. As for the experimental part:
(§4) Transactivation assays were performed in U2OS osteosarcoma cells (ATCC, USA). […] Ligands were added at ten different concentrations 2 h post transfection and the luciferase activity was measured after 40 h.
(In a reporter assay the amount or activity of a reporter protein is the signal.)

The target in the next assay is T5, LXRβ (Homo sapiens, UniProt P55055).
T5 construct: expression vectors pSG5-Gal4-LXRα LBD or pSG5-Gal4-LXRβ LBD; expressed in transfected cells; host or cells: U2OS osteosarcoma cells
T5 sequence (P55055 222-460 limits assumed): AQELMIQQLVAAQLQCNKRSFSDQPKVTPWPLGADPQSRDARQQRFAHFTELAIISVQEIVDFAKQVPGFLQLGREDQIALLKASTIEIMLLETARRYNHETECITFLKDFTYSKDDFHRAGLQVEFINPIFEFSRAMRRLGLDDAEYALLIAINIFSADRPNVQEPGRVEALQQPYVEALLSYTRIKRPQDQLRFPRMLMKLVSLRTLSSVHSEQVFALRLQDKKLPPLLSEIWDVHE
The assay is described as follows: Gal4 one hybrid reporter gene (transactivation) assay in U2OS cells, LXRβ. The class given is cell-based. As for the experimental part:
as §4

The target of assay [4] is T2, LXRα LBD. In words: differential HDX-MS of LXRα LBD (apo vs ligand-bound). Further details: Human his-tagged LXRα LBD (200-447); His tag; made in house; host or cells: Escherichia coli BL21(DE3). Conditions: HDX-MS. How it is done:
as §1, §2, §3

In general, Ki refers to a dissociation constant, usually derived from enzyme kinetics or from competition with a known ligand. A lower Ki goes with a stronger hold on the target. By Kd is commonly meant the constant that tells how readily two partners part at equilibrium. A high value points to lower affinity.

Regarding `C[C@H](CC[C@@H]1OC1(C)C)[C@H]1CC[C@H]2[C@@H]3CC=C4C[C@@H](O)CC[C@]4(C)[C@H]3CC[C@]12C` [24,25EC, 24(S),25-epoxycholesterol, reference compound], the “protection of LXRβ H11–H12 from deuterium exchange” value on LXRβ LBD [1] was 10%. In addition, the figures for the Ki on LXRβ LBD [2] and on LXRα LBD [3] were 132 nM and 275 nM, respectively. Besides, the Kd at LXRβ/SRC1 is 2500 nM. In addition, the “agonist activity in the Gal4 reporter gene assay, LXRα” value on LXRα is reported as “No signal was observed”. The EC50 was over 50100 nM on LXRα (U2OS cells, Gal4-LXRα LBD, value (SD, n), read-out: LXRα transactivation pEC50 (converted)) and over 50100 nM on LXRβ (LXRβ transactivation pEC50, U2OS cells, Gal4-LXRβ LBD, value (SD, n)). For the same compound, the “agonist activity in the Gal4 reporter gene assay, LXRβ” value on LXRβ is “No signal was observed”. Besides, the “stabilization of LXRα H12” value at LXRα LBD [4] is on record as “did not stabilize LXRα H12”.
